From paper PMC9189845, “Structure–Activity Relationships of 8-Hydroxyquinoline-Derived Mannich Bases with Tertiary Amines Targeting Multidrug-Resistant Cancer” (Journal of Medicinal Chemistry, 2022)
Counter-ions that a name gives are not always drawn. Like-named read-outs stand apart in the source and are kept apart here.

Experiments:
MES-SA/Dx5 cells = assay: PrestoBlue viability assay, MES-SA/Dx5 cells (MDR, P-gp positive); details: for SR_TQ: selectivity ratio MES-SA vs MES-SA/Dx5, with TQ; for SR: selectivity ratio MES-SA vs MES-SA/Dx5, without TQ; for SR (MES-SA_TQ / Dx5_TQ) (values in parentheses): presence of 1 μM TQ
MES-SA cells = assay: PrestoBlue viability assay, MES-SA cells
A431 cells = assay: PrestoBlue viability assay, A431 cells
A431-B1 cells = assay: PrestoBlue viability assay, A431-B1 (A431-ABCB1) cells
[1] = cited from earlier work
[2] = UV-visible spectrophotometric titrations (pKa); format: physicochemical; details: water with 0.2% (v/v) DMSO, 25 °C
Protocol: Spectrophotometrical determination of pKa values was performed as previously reported.[20],[50] An Agilent Cary 8454 diode array spectrophotometer was used to record the UV–visible spectra in the interval 200–800 nm. The path length was between 1 and 5 cm. The spectrophotometric titrations were performed in water with 0.2% (v/v) DMSO on samples containing the compounds at 2–50 μM in the pH range from 2 to 11.5 at 25.0 ± 0.1 °C at an ionic strength of 0.10 M (KCl). Proton dissociation constants and the individual spectra of the species in the different protonation states were calculated with the computer program PSEQUAD.[62]

[3] = Homo sapiens, MES-SA/Dx5, 72 h, read-out: IC50 / μM MES-SA/Dx5, absence of TQ, 72 h incubation
[4] = Homo sapiens, MES-SA/Dx5, read-out: IC50 / μM MES-SA/Dx5 (values in parentheses), presence of 1 μM P-gp inhibitor tariquidar (TQ)
[5] = Homo sapiens, MES-SA/Dx5, read-out: pIC50 value MES-SA/Dx5, MES-SA/Dx5 cells, without TQ (converted)
[6] = read-out: IC50 / μM MES-SA/Dx5 (values in parentheses), presence of 1 μM P-gp inhibitor tariquidar (TQ)
[7] = Homo sapiens, MES-SA, 72 h, read-out: IC50 / μM MES-SA, absence of TQ, 72 h incubation
[8] = Homo sapiens, MES-SA, read-out: IC50 / μM MES-SA (values in parentheses), presence of 1 μM P-gp inhibitor tariquidar (TQ)
[9] = Homo sapiens, MES-SA, read-out: pIC50 value MES-SA+TQ, MES-SA cells, with TQ (converted)
[10] = Homo sapiens, MES-SA, read-out: pIC50 value MES-SA, MES-SA cells, without TQ (converted)
[11] = Homo sapiens, A-431, 72 h, read-out: IC50 / µM A431, 72 h incubation
[12] = Homo sapiens, A-431, read-out: pIC50 A431, SARM figure (converted)
[13] = 72 h, read-out: IC50 / µM A431-B1, 72 h incubation
[14] = read-out: pIC50 A431-B1, SARM figure (converted)
[15] = fraction of IC50 in P-gp negative vs positive cells
[16] = 0.2% DMSO, I = 0.10 M KCl, read-out: pKa (OH), experimentally determined
[17] = quinolinium nitrogen, I = 0.10 M KCl, read-out: pKa (NquinH+), experimentally determined
[18] = Homo sapiens, MES-SA/Dx5, read-out: pIC50 value MES-SA/Dx5 + TQ, MES-SA/Dx5 cells, with TQ (converted)

Structure (SMILES) | melting point | IC50 (MES-SA/Dx5 cells; [3]) | IC50 (MES-SA/Dx5 cells; [4]) | IC50 (MES-SA/Dx5 cells; [5]) | SR_TQ (MES-SA/Dx5 cells) | SR (MES-SA/Dx5 cells) | IC50 (MES-SA cells; [7]) | IC50 (MES-SA cells; [8]) | IC50 (MES-SA cells; [9]) | IC50 (MES-SA cells; [10]) | IC50 (A431 cells; [11]) | IC50 (A431 cells; [12]) | IC50 (A431-B1 cells; [13]) | IC50 (A431-B1 cells; [14]) | other results
Oc1cc2c(cc1O)CN(Cc1ccc3cccnc3c1O)CC2 (as salt: hydrochloride) [Compound 82, 2-((8-Hydroxy-quinolin-7-yl)methyl)-1,2,3,4-tetrahydroisoquinoline-6,7-diol Hydrochloride] | 203 to 206 °C |  |  |  |  |  |  |  |  |  |  |  |  |  | 
Oc1c(CN2CCCCC2)ccc2cccnc12 [Compound 3] |  | 0.85 ± 0.18 µM | 2.69 µM | 0.832 µM | 1.56 | 6.13 | 5.21 ± 0.95 µM | 4.18 µM | 4.07 µM | 5.13 µM | 7.3 ± 0.98 µM | 9.77 µM | 1.62 ± 0.92 µM | 2.4 µM | IC50 (MES-SA/Dx5 cells; [6]): 1.87 µM; IC50 (MES-SA/Dx5 cells; read-out: IC50 / μM MES-SA/Dx5, absence of TQ, 72 h incubation): 0.86 ± 0.19 µM; IC50 (MES-SA cells; read-out: IC50 / μM MES-SA (values in parentheses), presence of 1 μM P-gp inhibitor tariquidar (TQ)): 3.81 µM; IC50 (MES-SA cells; read-out: IC50 / μM MES-SA, absence of TQ, 72 h incubation): 5.46 ± 1.01 µM; IC50 (A431 cells; read-out: IC50 / µM A431, 72 h incubation): 10.1 ± 2.95 µM; IC50 (A431-B1 cells; read-out: IC50 / µM A431-B1, 72 h incubation): 2.48 ± 0.7 µM; pKa (other; N+amH), experimental ([1]; water, 25 °C, ref 50 (Pape et al., Dalton Trans. 2018)): > 11
Oc1ccc(Cl)c2cccnc12 [Compound 13, reference compound] |  | 5.15 ± 0.48 µM |  | 5.13 µM |  | 1.6 | 8.26 ± 0.1 µM |  |  | 8.32 µM |  |  |  |  | pKa (OH), experimental ([1]; ref 59 (Mészáros et al., Dalton Trans. 2020)): 7.6
Oc1c(CN2CCCC2)cc(Br)c2cccnc12 [Compound 16, 5-Bromo-7-(pyrrolidin-1-ylmethyl)quinolin-8-ol] | 119 to 121 °C | 0.41 ± 0.14 µM | 3.14 ± 0.89 µM | 0.389 µM | 1.46 | 9.45 | 3.9 ± 0.87 µM | 4.58 ± 1.05 µM | 4.47 µM | 3.8 µM | 4.32 ± 0.39 µM | 4.27 µM | 1.54 ± 0.51 µM | 1.45 µM | 
Oc1c(CN2CCOCC2)cc(Cl)c2cccnc12 [Compound 29] |  | 0.82 ± 0.06 µM | 1.17 ± 0.01 µM | 0.813 µM | 1.41 | 1.86 | 1.52 ± 0.07 µM | 1.66 ± 0.02 µM | 1.66 µM | 1.51 µM | 6.6 ± 3.57 µM | 5.75 µM | 2.42 ± 0.29 µM | 2.4 µM | pKa (NquinH+), experimental ([1]; water, 25 °C, ref 15 (Pape et al., Cancers 2021)): < 2
CN1CCN(Cc2ccc3cccnc3c2O)CC1 [Compound 34, 7-((4-Methylpiperazin-1-yl)methyl)quinolin-8-ol] | 120 to 122 °C | 8.67 ± 1.69 µM | 14.1 µM | 8.51 µM | 1.1 | 1.93 | 16.7 ± 1.86 µM | 15.5 ± 0.19 µM | 15.5 µM | 16.6 µM | 25.5 ± 1.98 µM | 25.7 µM | 11.3 ± 0.95 µM | 11.2 µM | SR (MES-SA_TQ / Dx5_TQ) (values in parentheses) (MES-SA/Dx5 cells; [15]): 1.10
Oc1c(CN2CCN(c3ccccc3)CC2)cc(Cl)c2cccnc12 [Compound 38] |  | 0.59 ± 0.26 µM | 1.87 ± 0.75 µM | 0.537 µM | 1.91 | 5.84 | 3.42 ± 1.17 µM | 3.57 ± 1.18 µM | 3.39 µM | 3.24 µM | 7.38 ± 1.23 µM | 7.24 µM | 6.31 ± 2.64 µM | 5.75 µM | pKa [2, 16]: 6.21 ± 0.03; pKa ([2]; read-out: pKa (NpiperaziniumH+ closer to quinoline ring), experimentally determined): 10.1 ± 0.03; pKa [2, 17]: 1.7 ± 0.1; IC50 (MES-SA/Dx5 cells; [18]): 1.74 µM
Oc1c(CN2CCc3ccccc3C2)ccc2cccnc12 [Compound 51, 7-((3,4-Dihydroisoquinolin-2(1H)-yl)methyl)quinolin-8-ol] | 155 to 157 °C | 1.04 ± 0.1 µM | 2.16 ± 0.31 µM | 1.05 µM | 1.37 | 3.03 | 3.16 ± 0.41 µM | 2.97 ± 0.31 µM | 2.95 µM | 3.16 µM | 4.74 ± 0.04 µM | 4.79 µM | 2.39 ± 0.02 µM | 2.4 µM | pKa [2, 16]: 6.24 ± 0.03; pKa ([2]; piperidinium / pyrrolidinium / morpholinium N, read-out: pKa (other; N+amH alkylamine nitrogen), experimentally determined): 10.68 ± 0.03; pKa [2, 17]: 3.07 ± 0.03; IC50 (MES-SA/Dx5 cells; [18]): 2.14 µM; IC50 (MES-SA/Dx5 cells; [6]): 1.73 µM
CN1CCN(Cc2ccc3ccccc3c2O)CC1 [Compound 70, 2-((4-Methylpiperazin-1-yl)methyl)naphthalen-1-ol] | 79 to 81 °C | > 100 µM |  |  |  |  | > 100 µM |  |  |  |  |  |  |  | 
CN1CCN(Cc2cnc3ccccc3c2O)CC1 [Compound 71, 3-((4-Methylpiperazin-1-yl)methyl)quinolin-4-ol] | 164 to 166 °C | 91 µM |  | 91.2 µM |  | 1.04 | 94.9 ± 2.02 µM |  |  | 95.5 µM |  |  |  |  | 
Oc1c(CN2CCc3ccccc3C2)cc(Br)c2cccnc12 [Compound 81, 5-Bromo-7-((3,4-dihydroisoquinolin-2(1H)-yl)methyl)quinolin-8-ol] | 156 to 159 °C | 0.34 ± 0.05 µM | 1.48 µM | 0.363 µM | 1.82 | 6.23 | 2.23 ± 0.15 µM | 2.45 µM | 1.78 µM | 2.29 µM |  |  |  |  | SR (MES-SA / MES-SA/Dx5) (MES-SA/Dx5 cells; fraction of IC50 in P-gp negative vs positive cells, absence of TQ): 6.50; SR (MES-SA_TQ / Dx5_TQ) (values in parentheses) (MES-SA/Dx5 cells; [15]): 1.66
Oc1c(C(c2cccnc2)N2CCCCC2)ccc2cccnc12 (stereo not shown) [Compound 92, 7-((Piperidine-1-yl)(pyridin-3-yl)methyl)quinolin-8-ol] | 178 to 179 °C | 8.58 ± 0.38 µM |  | 8.51 µM |  | 1.59 | 13.65 ± 0.12 µM |  |  | 13.5 µM |  |  |  |  | 
